Drawing on patent US4066772A, “1,3-Dihydro-1-[3-(1-piperidinyl)propyl]-2H-benzimidazol-2-ones and related compounds” (Janssen Pharmaceutica N.V., priority 1976, dated 1978), this text covers ED50 for 18 compounds.

The structures appear in SMILES notation.

The ED50 is the midpoint of the dose-response relation.

The first assay relates to apomorphine-induced vomiting in dogs. Nature of the assay: Apomorphine-induced vomiting test in dogs (antiemetic activity, subcutaneous). The conditions noted are these: Canis lupus familiaris, sc, 1 h, read-out: ED50 (dose which protects 50% of the animals from emesis), Table I. In kind it is in vivo, beagle dogs.
Consider `C=CCn1c(=O)n(CCCN2CCC3(CC2)C(=O)NCN3c2ccccc2)c2ccccc21` [L=CH2CHCH2, R1=H, R4=H, R5=H, 8-{3-[1,3-dihydro-2-oxo-3-(2-propenyl)-2H-benzimidazol-1-yl]propyl}-1-phenyl-1,3,8-triazaspiro[4,5]decan-4-one], for which the ED50 was 0.25 mg/kg.

On to `Cn1c(=O)n(CCCN2CCC3(CC2)C(=O)NCN3c2ccccc2)c2ccccc21` [L=CH3, R1=H, R4=H, R5=H, 8-[3-(1,3-dihydro-3-methyl-2-oxo-2H-benzimidazol-1-yl)propyl]-1-phenyl-1,3,8-triazaspiro[4,5]-decan-4-one], for which the 50% effective dose (ED50) worked out at 0.08 mg/kg.

As to `Cc1ccc2c(c1)[nH]c(=O)n2CCCN1CCC2(CC1)C(=O)NCN2c1ccccc1` [L=H, R1=5-CH3, R4=H, R5=H, 8-[3-(1,3-dihydro-5-methyl-2-oxo-2H-benzimidazol-1-yl)propyl]-1-phenyl-1,3,8-triazaspiro[4,5]decan-4-one], the ED50 was 0.06 mg/kg. Still for that read-out and setting: then `O=C1NCN(c2ccc(F)cc2)C12CCN(CCCn1c(=O)[nH]c3cc(Cl)ccc31)CC2` [L=H, R1=5-Cl, R4=H, R5=4-F, 8-[3-(5-chloro-1,3-dihydro-2-oxo-2H-benzimidazol-1-yl)propyl]-1-(4-fluorophenyl)-1,3,8-triazaspiro[4,5]decan-4-one], with 0.015 mg/kg. In the case of `O=C1NCN(c2ccccc2)C12CCN(CCCn1c(=O)[nH]c3cc(Cl)ccc31)CC2` [L=H, R1=5-Cl, R4=H, R5=H, 8-[3-(5-chloro-1,3-dihydro-2-oxo-2H-benzimidazol-1-yl)propyl]-1-phenyl-1,3,8-triazaspiro[4,5]decan-4-one], the 50% effective dose (ED50) was 0.05 mg/kg. Regarding `CN1CN(c2ccccc2)C2(CCN(CCCn3c(=O)[nH]c4ccccc43)CC2)C1=O` [L=H, R1=H, R4=CH3, R5=H, 8-[3-(1,3-dihydro-2-oxo-2H-benzimidazol-1-yl)propyl]-3-methyl-1-phenyl-1,3,8-triazaspiro[4,5]decan-4-one], the ED50 stood at 0.015 mg/kg. Still for that read-out and setting: with `O=C1NCN(c2cccc(C(F)(F)F)c2)C12CCN(CCCn1c(=O)[nH]c3ccccc31)CC2` [L=H, R1=H, R4=H, R5=3-CF3, 8-[3-(2,3-dihydro-2-oxo-1H-benzimidazol-1-yl)propyl]-1-[3-(trifluoromethyl)phenyl]-1,3,8-triazaspiro[4,5]decan-4-one] the figure was 0.025 mg/kg; with `O=C1NCN(c2ccc(F)cc2)C12CCN(CCCn1c(=O)[nH]c3ccccc31)CC2` [L=H, R1=H, R4=H, R5=4-F], 0.04 mg/kg. As to `O=C1NCN(c2ccccc2)C12CCN(CCCn1c(=O)[nH]c3ccccc31)CC2` [L=H, R1=H, R4=H, R5=H, 8-[3-(1,3-dihydro-2-oxo-2H-benzimidazol-1-yl)propyl]-1-phenyl-1,3,8-triazaspiro[4,5]decan-4-one], the ED50 is 0.03 mg/kg.

Still in this assay, the particulars now being: Canis lupus familiaris, sc, 1 h, read-out: ED50 (dose which protects 50% of the animals from emesis), Table II.
On to `O=c1[nH]c2ccccc2n1CCCN1CCC(n2c(=O)[nH]c3cc(Cl)ccc32)CC1` [5-chloro-1-{1-[3-(1,3-dihydro-2-oxo-2H-benzimidazol-1-yl)propyl]-4-piperidinyl}-1,3-dihydro-2H-benzimidazol-2-one], for which the ED50 is 0.01 mg/kg.

Staying with this assay, now noted: Canis lupus familiaris, sc, 1 h, read-out: ED50 (dose which protects 50% of the animals from emesis), Table III.
As to `C=CCn1c(=O)n(CCCN2CCC(O)(c3ccc(Cl)cc3)CC2)c2ccccc21` [L=CH2CHCH2, R8=4-Cl, R9=H, 1-{3-[4-(4-chlorophenyl) 4-hydroxy-1-piperidinyl]propyl}-1,3-dihydro-3-(2-propenyl)-2-H-benzimidazol-2-one], the 50% effective dose (ED50) stood at 0.5 mg/kg. Turning to `O=c1[nH]c2ccccc2n1CCCN1CCC(O)(c2ccc(Cl)c(C(F)(F)F)c2)CC1` [L=H, R8=4-Cl, R9=3-CF3, 1-[3-{4-[4-chloro-3-(trifluoromethyl)phenyl]-4-hydroxy-1-piperidinyl}propyl]-1,3-dihydro-2H-benzimidazol-2-one], the 50% effective dose (ED50) came out at 0.015 mg/kg. In the case of `O=c1[nH]c2ccccc2n1CCCN1CCC(O)(c2ccc(Cl)cc2)CC1` [L=H, R8=4-Cl, R9=H, 1-{3-[4-(4-chlorophenyl)-4-hydroxy-1-piperidinyl]-propyl}-1,3-dihydro-2H-benzimidazol-2-one], the median effective dose (ED50) was 0.06 mg/kg.

Still in this assay, the particulars now being: Canis lupus familiaris, sc, 1 h, read-out: ED50 (dose which protects 50% of the animals from emesis), Table IV.
With `O=C1NCN(c2ccccc2)C12CCN(CCCn1cnc3ccccc31)CC2`, the 50% effective dose (ED50) was found to be 0.25 mg/kg.

Still in this assay, the particulars now being: Canis lupus familiaris, sc, beagle dogs, apomorphine 0.31 mg/kg s.c. 1 hour after compound; read-out: ED50 (dose which protects 50% of the animals from emesis), Table II.
Take `O=c1[nH]c2ccccc2n1CCCN1CC=C(n2c(=O)[nH]c3ccccc32)CC1` [L=H, R1=H, R2=H, R3=H, ring drawing 47, R7=H, 1-{3-[3,6-dihydro-4-(1,3-dihydro-2-oxo-2H-benzimidazol-1-yl)-1-(2H)-pyridinyl]propyl}-1,3-dihydro-2H-benzimidazol-2-one]: the ED50 is 0.04 mg/kg.

Staying with this assay, now noted: Canis lupus familiaris, sc, beagle dogs, apomorphine 0.31 mg/kg s.c. 1 hour after compound; read-out: ED50 (dose which protects 50% of the animals from emesis), Table IV.
Regarding `O=c1[nH]c2cc(Cl)ccc2n1C1CCN(CCCn2c(=S)[nH]c3ccccc32)CC1`, the 50% effective dose (ED50) is 0.004 mg/kg. Same read-out and setting: with `O=c1[nH]c2ccccc2n1CCCN1CCC(n2c(=S)[nH]c3ccccc32)CC1` the figure was 0.025 mg/kg; with `O=c1[nH]c2ccccc2n1CCCN1CCC(n2c(=S)[nH]c3cc(Cl)ccc32)CC1`, 0.004 mg/kg.
